Measured values taken from patent US20210161855A1, “5-LIPOXYGENASE ANTAGONISTS” (INSTITUTO DE MEDICINA MOLECULAR JOÃO LOBO ANTUNES, priority 2017, published 2021).
Where two headings read alike, the source gives them in different places.

Tests used:
Escherichia coli K12 = assay: MIC/MBC assay, E. coli; assay type: cell-based; details: read-out: Minimum bactericidal concentration
Procedure: Escherichia coli K12 and Staphylococcus aureus ATCC 25923 were grown overnight at 37° C. and re-inoculated in 24-well plates containing 2.5 mL of Luria Bertani medium (LB) to give an optical density of ˜0.01 at 600 nm. Stock solutions of β-lapachone, and lapachol were prepared in DMSO (1% final concentration) and added to the cell suspensions to obtain final concentrations between 5-210 μM. Wells containing a growth control (cell suspensions with 1% DMSO) and a sterile media control were also prepared. The plates were incubated for 18 h at 37° C. and 90 r.p.m. The concentration of compound in the first well in the series that presented no sign of visible growth was reported as the MIC. The OD600 of the cultures was also measured. All the MIC wells were serially diluted in phosphate buffer saline (PBS) and plated onto LB agar plates.

5-LO [1] = molecular target: T1, 5-LO (Homo sapiens, UniProt P09917); assay: Circular dichroism binding, protein melting curves
T1 sequence (P09917 1-674): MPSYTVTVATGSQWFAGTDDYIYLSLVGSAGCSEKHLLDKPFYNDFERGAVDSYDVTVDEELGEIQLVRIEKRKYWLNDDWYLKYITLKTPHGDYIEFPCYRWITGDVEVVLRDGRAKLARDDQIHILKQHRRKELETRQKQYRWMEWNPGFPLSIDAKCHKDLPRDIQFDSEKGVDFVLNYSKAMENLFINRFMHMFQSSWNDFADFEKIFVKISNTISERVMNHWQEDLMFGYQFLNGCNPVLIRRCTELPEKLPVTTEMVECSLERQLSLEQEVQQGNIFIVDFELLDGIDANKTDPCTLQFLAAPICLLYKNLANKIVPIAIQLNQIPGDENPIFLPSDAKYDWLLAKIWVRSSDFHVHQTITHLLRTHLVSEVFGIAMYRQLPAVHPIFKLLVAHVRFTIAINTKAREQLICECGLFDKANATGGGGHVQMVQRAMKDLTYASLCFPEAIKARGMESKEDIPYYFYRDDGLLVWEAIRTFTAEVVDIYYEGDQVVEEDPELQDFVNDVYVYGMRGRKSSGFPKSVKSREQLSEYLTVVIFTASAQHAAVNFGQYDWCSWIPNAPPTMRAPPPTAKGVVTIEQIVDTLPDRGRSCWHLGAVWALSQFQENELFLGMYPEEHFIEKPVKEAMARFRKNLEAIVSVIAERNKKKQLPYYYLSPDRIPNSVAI

[2] = mouse, in vivo, iv, 100 mg/kg
5-LO [3] = molecular target: T1, 5-LO; assay: Cell-free activity assay of human recombinant 5-LO; assay type: biochemical; set-up: made in house; host or cells: E. coli (BL21), plasmid pT3-5-LO
Procedure: E. coli(BL21) was transformed with pT3-5-LO plasmid, and recombinant 5-LO protein was expressed at 30° C. as described.^34 Cells were lysed in 50 mM triethanolamine/HCl pH 8.0, 5 mM EDTA, 1 mM phenylmethanesulphonyl fluoride, soybean trypsin inhibitor (60 μg/mL), and lysozyme (1 mg/mL), homogenized by sonication (3×15 s), and centrifuged at 40,000×g for 20 min at 4° C. The 40,000×g supernatant (S40) was applied to an ATP-agarose column to partially purify 5-LO as described.^70 Aliquots of semi-purified 5-LO (0.5 μg) were diluted with 1 mL ice-cold PBS containing 1 mM EDTA. Samples were pre-incubated with the test compound or vehicle (0.1% DMSO) with or without Triton X-100 and/or 1 mM DTT, as indicated. After 10 min at 4° C., samples were pre-warmed for 30 s at 37° C., and 2 mM CaCl2 plus the indicated concentrations of arachidonic acid (AA) were added to start the formation of 5-LO products. After 10 min, the reaction was stopped by addition of one volume of ice-cold methanol, and the formed 5-LO products were analyzed by RP-HPLC as described.^71 5-LO products include the all-trans isomers of LTB4 (tr-LTB4 isomers) as well as 5(S)-hydroperoxy-6-trans-8,11,14-cis-eicosatetraenoic acid (5-HPETE) and its corresponding alcohol 5(S)-hydroxy-6-trans-8,11,14-cis-eicosatetraenoic acid (5-HETE). For phosphatidylcholine competition assays (3 or 30 μg/ml PC) samples were pre-incubated on ice with β-lapachone with or without 1 mM DDT or vehicle (0.1% DMSO) for 10 minutes. After addition of 2 mM CaCl2) and 20 μM AA the incubation was continued for 10 minutes at 37° C. and after that stopped with methanol.
Data are expressed as mean±S.E.M. IC50 values were calculated from averaged measurements at 6 different concentrations of the compound by nonlinear regression using GraphPad Prism software (San Diego, Calif.) one site binding competition. Statistical evaluation of the data was performed by one-way ANOVA followed by a Tukey-Kramer post-hoc test for multiple comparisons respectively. A p value<0.05 (*) was considered significant.

HL-60 = assay: Cell viability, AML model HL-60 (FIG. 9a); assay type: cell-based; details: Homo sapiens, n=3
TRPV1 = TRPV1 (Homo sapiens, UniProt Q8NER1); assay: TRPV1 channel antagonism, functional assay; assay type: cell-based; details: 150 μM
HEL = assay: Cell viability, AML model HEL (FIG. 9a); assay type: cell-based; details: Homo sapiens, n=3
[4] = molecular target: Phosphodiesterase 5 (PDE5) (Homo sapiens, UniProt O76074); assay: Phosphodiesterase 5 assay (Cerep); assay type: biochemical; details: 2 μM
Procedure: Phosphodiesterase 5 (PDE5) assay was performed at Cerep, SA (Celle l'Evescault, France) on a fee-for-service basis (Ref 0204^39), as described in Table 2. [table]

Sequence of TRPV1 (Q8NER1 whole entry, species assumed): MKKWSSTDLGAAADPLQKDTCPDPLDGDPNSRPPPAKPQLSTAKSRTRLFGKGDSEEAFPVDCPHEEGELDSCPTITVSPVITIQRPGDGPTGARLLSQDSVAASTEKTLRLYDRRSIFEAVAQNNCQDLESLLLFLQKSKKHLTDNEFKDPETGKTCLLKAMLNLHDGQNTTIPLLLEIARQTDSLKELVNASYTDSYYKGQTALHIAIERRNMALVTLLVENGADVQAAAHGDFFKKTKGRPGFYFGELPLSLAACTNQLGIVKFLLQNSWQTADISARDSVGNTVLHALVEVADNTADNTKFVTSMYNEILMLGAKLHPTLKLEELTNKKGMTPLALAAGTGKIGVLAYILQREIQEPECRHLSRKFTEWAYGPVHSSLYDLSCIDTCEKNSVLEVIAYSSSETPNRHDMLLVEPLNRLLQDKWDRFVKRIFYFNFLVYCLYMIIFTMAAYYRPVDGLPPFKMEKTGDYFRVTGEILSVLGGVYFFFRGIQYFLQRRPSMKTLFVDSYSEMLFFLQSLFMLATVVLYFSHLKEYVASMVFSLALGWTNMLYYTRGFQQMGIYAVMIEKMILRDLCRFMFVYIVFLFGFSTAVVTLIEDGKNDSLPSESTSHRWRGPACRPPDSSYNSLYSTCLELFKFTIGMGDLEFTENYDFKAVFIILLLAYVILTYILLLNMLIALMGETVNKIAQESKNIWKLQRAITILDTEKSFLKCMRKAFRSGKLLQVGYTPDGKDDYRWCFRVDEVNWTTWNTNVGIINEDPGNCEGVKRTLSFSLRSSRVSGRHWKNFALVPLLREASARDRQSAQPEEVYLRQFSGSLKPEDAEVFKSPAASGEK

CC1(C)CCC2=C(O1)c1ccccc1C(=O)C2=O [Compound 1, 3,4-dihydro-2,2-dimethyl-2H-naphtho[1,2-b]pyran-5,6-dione]
MBC (Escherichia coli K12): > 200 µM | Kd (5-LO [1]): 5700 nM | Toxicity at higher doses [2]: toxicity | IC50 (5-LO [3]; 3 μg/mL phosphatidylcholine, n=3, read-out: IC50 (3 μg/mL, PC), competition assay with phosphatidylcholine): 100 nM | IC50 (5-LO [3]; 30 μg/mL phosphatidylcholine, n=3, read-out: IC50 (30 μg/mL, PC), competition assay with phosphatidylcholine): 1000 nM | IC50 (5-LO [3]; 1 mM DTT, 0.01% Triton X100, n=3, read-out: IC50 (with Triton X100), inhibition of 5-LO): 90 nM | IC50 (5-LO [3]; 1 mM DTT, no Triton X100, n=3, read-out: IC50 (without Triton X100), inhibition of 5-LO): 120 nM | IC50 (5-LO [3]; 1 mM dithiothreitol (DTT), n=3, read-out: IC50 (with DTT), inhibition of 5-LO in a cell-free assay): 240 nM | IC50 (5-LO [3]; absence of DTT, n=3, read-out: IC50 (without DTT), inhibition of 5-LO in a cell-free assay): > 30000 nM | Effect of arachidonic acid concentration on potency (5-LO [3]; arachidonic acid 2.5-40 μM): only to minor alterations of the potency | 5-LO modulation in absence of dithiothreitol (5-LO [3]; cell-free, no DTT, up to 30 μM): negligible 5-LO modulation | 5-LO activity after wash-out (5-LO [3]; wash-out of compound): could be reinstated upon wash-out | IC50 (HL-60): 2700 nM | TRPV1 antagonist effect (TRPV1): 63% | IC50 (HEL): 900 nM | PDE5 screening outcome [4]: inactivity
